Results on 20 molecules are retold here after patent EP0345356A1, “PLATINUM COMPLEX AND THERAPEUTIC AGENT FOR MALIGNANT TUMOR” (TORAY INDUSTRIES, INC., priority 1987, dated 1989).

“And” between values parts separate entries of the source, which are not always exact repeats. Equal entries are not always repeated. Where only a bound is given, the exact number is not on record here.

In data set [1] the test system is Slc:ICR mice. Briefly: Acute toxicity test in mice (LD50, Miller-Tainter method). It counts as in vivo. To be noted: intraperitoneal, Slc:ICR mice (male), death rate on the 14th day. As for the experimental part:
Platinum complexes to be tested was administered intraperitoneally to Slc:ICR mice (male, 5 weeks old, 6 mice/group). Each complex was used in the form of a solution or suspension in a 0.05% "Tween 80" in saline. The LD50 value was calculated by the Miller-Tainter method from the death rate on the 14th day from the date of the administration.

Data set [2] relates to L1210 murine leukemia cells. Briefly: Antitumor activity against L1210 leukemia in mice. To be noted: for Survival days (mean ± SD) / T/C (%): given on 1st, 5th and 9th days after tumor inoculation; for Survival rate: number of 30 days survival mice / group. It counts as in vivo, CDF1 mice. On the procedure:
L1210 murine leukemia cells which were subcultured in DBA/2 mouse were inoculated intraperitoneally into CDF1 mice at 10^5 cells/mouse. Each experimental group was composed of 6-10 mice (male, 6-weeks old). Each test compound was administered three times, i.e., on the 1st, 5th and 9th days after tumor inoculation. […] Each compound was dissolved or suspended in 0.05% "Tween 80" solution and administered in mice.

As to “Bis(2-propenylacrylate)(trans-ℓ-dach)platinum(II) [XXX-1]”, in data set [1], the LD50 values is given as 77 mg/kg.
For the molecule `NC1CCCCC1N.O=C([O-])c1ccco1.O=C([O-])c1ccco1.[Pt+2]` (stereo not drawn) [XXIV-1, Bis(2-furancarboxylato)(trans-ℓ-dach)platinum(II)], the “Survival days (mean ± SD)” value in data set [2] (Dose 1 mg/kg) came out at 9.5 ± 0.8 days; in data set [2] (Dose 10 mg/kg), 14.2 ± 2.9 days; in data set [2] (Dose 25 mg/kg), 20.2 ± 4.9 days; in data set [2] (Dose 50 mg/kg), 17.3 ± 6.3 days; in data set [2] (Dose 100 mg/kg), 9.0 ± 1.5 days; in data set [2] (Dose 200 mg/kg), 6.0 days. The “T/C (%)” value is recorded as 117% in data set [2] (Dose 1 mg/kg); 175% in data set [2] (Dose 10 mg/kg); 249% in data set [2] (Dose 25 mg/kg); 214% in data set [2] (Dose 50 mg/kg); 111% in data set [2] (Dose 100 mg/kg); 74% in data set [2] (Dose 200 mg/kg). Besides, the Survival rate was 0/6 in data set [2] (Dose 1 mg/kg); 0/6 in data set [2] (Dose 10 mg/kg); 1/6 in data set [2] (Dose 25 mg/kg); 1/6 in data set [2] (Dose 50 mg/kg); 0/6 in data set [2] (Dose 100 mg/kg); 0/6 in data set [2] (Dose 200 mg/kg). For the same molecule, the LD50 values in data set [1] came to 87 mg/kg.
Molecule “2-Furanacrylate-hydroxo(trans-i-dach)platinum(II) [XXXI-3]” showed an LD50 values in data set [1] of more than 200 mg/kg.
For the molecule `NC1CCCCC1N.O=C([O-])C1CCCO1.O=C([O-])C1CCCO1.[Pt+2]` (racemic) [XXIV-2, Bis(DL-2-tetrahydrofurancarboxylato)(trans-ℓ-dach)-platinum(II)], the “Survival days (mean ± SD)” value was found to be 11.5 ± 1.9 days in data set [2] (Dose 1 mg/kg); 20.3 ± 2.7 days in data set [2] (Dose 10 mg/kg); 16.7 ± 4.3 days in data set [2] (Dose 25 mg/kg); 10.2 ± 1.0 days in data set [2] (Dose 50 mg/kg); 6.3 ± 0.8 days in data set [2] (Dose 100 mg/kg); 4.8 ± 1.3 days in data set [2] (Dose 200 mg/kg). In addition, the “T/C (%)” value in data set [2] (Dose 1 mg/kg) is recorded as 135%; in data set [2] (Dose 10 mg/kg) it was 239%; in data set [2] (Dose 25 mg/kg) it was 196%; in data set [2] (Dose 50 mg/kg) it was 120%; in data set [2] (Dose 100 mg/kg), 74%; in data set [2] (Dose 200 mg/kg), 57%. Further, the Survival rate in data set [2] (Dose 1 mg/kg), in data set [2] (Dose 10 mg/kg), in data set [2] (Dose 25 mg/kg), in data set [2] (Dose 50 mg/kg), in data set [2] (Dose 100 mg/kg) and in data set [2] (Dose 200 mg/kg) was 0/6 each time. For the same molecule, the LD50 values in data set [1] is listed as 45 mg/kg.
In turn, `COCCOCC(=O)[O][Pt][O]C(=O)COCCOC.NC1CCCCC1N` [XXVII-1, Bis(methoxyethoxymethylcarboxylato)(trans-ℓ-dach)-platinum(II)] yielded an LD50 values in data set [1] of 50 mg/kg.
For the molecule `N.N.O=C([O-])C1(C(=O)[O-])CCC1.[Pt+2]` [C B D C A, cis-diammine-1,1-cyclobutanedicarboxylate platinum(II), reference compound], the “Survival days (mean ± SD)” value worked out at 8.3 ± 0.5 days in data set [2] (Dose 1 mg/kg); 9.3 ± 0.5 days in data set [2] (Dose 10 mg/kg); 10.1 ± 1.3 days in data set [2] (Dose 25 mg/kg); 13.1 ± 2.3 days in data set [2] (Dose 50 mg/kg); 14.1 ± 3.7 days in data set [2] (Dose 100 mg/kg); 9.6 ± 0.7 days in data set [2] (Dose 200 mg/kg). Also, the “T/C (%)” value turned out to be 98% in data set [2] (Dose 1 mg/kg); 109% in data set [2] (Dose 10 mg/kg); 119% in data set [2] (Dose 25 mg/kg); 156% in data set [2] (Dose 50 mg/kg); 166% in data set [2] (Dose 100 mg/kg); 113% in data set [2] (Dose 200 mg/kg). The Survival rate in data set [2] (Dose 1 mg/kg), in data set [2] (Dose 10 mg/kg), in data set [2] (Dose 25 mg/kg), in data set [2] (Dose 50 mg/kg), in data set [2] (Dose 100 mg/kg) and in data set [2] (Dose 200 mg/kg) was 0/10 each time.
With `CC1(C(=O)[O][Pt][O]C(=O)C2(C)CCC3(C)CCC4(C)C(=CC(=O)C5C6(C)CCC(O)C(C)(C)C6CCC54C)C3C2)CCC2(C)CCC3(C)C(=CC(=O)C4C5(C)CCC(O)C(C)(C)C5CCC43C)C2C1.NC1CCCCC1N.O.O.O.O` (stereo not drawn) [XXXV-1, Bis(β-glycyrrhetinato)(trans-ℓ-dach)platinum(II)-tetrahydrate], in data set [1], the LD50 values is listed as more than 150 mg/kg.
The molecule `NC1CCCCC1N.O=C([O][Pt][O]C(=O)C1(O)CC(O)C(O)C(O)C1)C1(O)CC(O)C(O)C(O)C1` [XXXII-1, Bis(lR,3R,4R,5R-tetrahydroxycyclohexanecarboxylato)-(trans-ℓ-dach)platinum(II)] had an LD50 values in data set [1] of more than 200 mg/kg.
Same read-out and setting: for `NC1CCCCC1N.O=C([O-])CCc1ccc(O)cc1.O=C([O-])CCc1ccc(O)cc1.[Pt+2]` [XXXIV-1, Bis(3-(4-hydroxyphenyl)propionato)(trans-ℓ-dach)-platinum(II)] the value was 90 mg/kg; for `CC1(C)CC(=O)C=C(C(=O)[O-])O1.CC1(C)CC(=O)C=C(C(=O)[O-])O1.NC1CCCCC1N.[Pt+2]` [XXV-1, bis(3,4-dihydro-2,2-dimethyl-4-oxo-2H-pyrane-6-carboxylato) (trans-k-dach)platinum(II)], 192 mg/kg; for `COC(=O)C(Cc1ccccc1)NC(=O)C=CC(=O)[O-].NC1CCCCC1N.[OH-].[Pt+2]` (stereo not drawn) [XXIX-2, N-(dℓ-2-phenyl-1-methoxycarbonylethyl)maleamido-hydroxo(trans-i-dach)platinum(II)], more than 200 mg/kg.
Still for that read-out and setting: as for “N-(4-methoxycarbonylphenyl)maleamido-hydroxo(trans-A-dach)platinum(II) [XXIX-3]”, the figure is 48 mg/kg; as for `O=C(C=Cc1ccc(C(F)(F)F)cc1)[O][Pt]1([OH])[NH]C2CCCCC2[NH]1` (stereo not drawn) [XXXI-5, β-(4-trifluourmethylphenyl)acrylate-hydroxo(trans-ℓ-dach)platinum(II)], more than 200 mg/kg.
Still for that read-out and setting: for `NC1CCCCC1N.O=C([O-])C=CC(=O)Nc1cccc(O)c1.[OH-].[Pt+2]` [XXIX-4, N-(3-hydroxyphenyl)maleamido-hydroxo(trans-ℓ-dach)-platinum(II)] the value was 62 mg/kg.
`NC1CCCCC1N.O=C(CN1C(=O)c2ccccc2C1=O)NCC(=O)[O][Pt][O]C(=O)CNC(=O)CN1C(=O)c2ccccc2C1=O` [XXVI-1, Bis(phthaloylglycylglycinato)(trans-ℓ-dach)-platinum(II)] came in with an LD50 values in data set [1] of more than 200 mg/kg.
The same measure, in the same setting: as for `O=C(C=Cc1ccc(O)cc1)[O][Pt]1([OH])[NH]C2CCCCC2[NH]1` (stereo not drawn) [XXXI-4, β-(4-hydroxyphenyl)acrylate-hydroxo(trans-ℓ-dach)-platinum(II)], the figure is 117 mg/kg; as for “2-Propenylacrylate-hydroxo(trans-ℓ-dach)platinum(II) [XXXI-2]”, more than 200 mg/kg.
On the same count and under the same terms, for `CCOC(=O)CNC(=O)C=CC(=O)[O-].NC1CCCCC1N.[OH-].[Pt+2]` [XXIX-1, N-(ethoxycarbonylmethyl)maleamido-hydroxo(trans-ℓ- dach)platinum(II)] the value was more than 200 mg/kg.
As for `N.N.[Cl][Pt][Cl]` [C D D P, cis-diamminedichloro platinum(II), reference compound], the “Survival days (mean ± SD)” value is 18.9 ± 5.8 days in data set [2] (Dose 0.5 mg/kg); 14.5 ± 2.5 days and 15.5 ± 1.4 days and 13.0 ± 3.1 days and 14.8 ± 2.7 days in data set [2] (Dose 2.5 mg/kg, 2.5 mg/kg); 16.3 ± 1.2 days and 18.2 ± 0.4 days and 18.8 ± 4.3 days in data set [2] (Dose 5 mg/kg, 5 mg/kg); 19.0 ± 8.7 days and 19.2 ± 3.0 days and 20.2 ± 4.8 days and 18.7 ± 3.1 days in data set [2] (Dose 7.5 mg/kg, 7.5 mg/kg). The “T/C (%)” value is 225% in data set [2] (Dose 0.5 mg/kg); 175% and 191% and 181% in data set [2] (Dose 2.5 mg/kg, 2.5 mg/kg); 201% and 214% and 232% in data set [2] (Dose 5 mg/kg, 5 mg/kg); 229% and 237% and 238% and 231% in data set [2] (Dose 7.5 mg/kg, 7.5 mg/kg). The Survival rate was 0/6 in data set [2] (Dose 0.5 mg/kg); 0/6 in data set [2] (Dose 2.5 mg/kg); 0/6 in data set [2] (Dose 5 mg/kg); 1/6 and 0/6 in data set [2] (Dose 7.5 mg/kg, 7.5 mg/kg).
`O=C([O][Pt]1([O]C(=O)c2ccc(N3C(=O)C=CC3=O)cc2)[NH]C2CCCCC2[NH]1)c1ccc(N2C(=O)C=CC2=O)cc1` (stereo not drawn) [XXVIII-1, Bis[N-(4-carboxyphenyl)maleimido](trans-ℓ-dach)-platinum(II)] registered an LD50 values in data set [1] of 70 mg/kg.
